Earlier results in US6703001B1, “Cosmetic and dermatological light-protective formulations containing triazine derivatives one or several esters of branched-chain carboxylic acids and branched-chain alcohols” (Beiersdorf AG, priority 1998, dated 2004).

corresponding dissolved, and therefore active, UV filter substance (corresponds to the about 15% by weight solubility in known solvents): 1-1.5 % by weight
maximum amount of the filter that known solvents can dissolve (known solvents for this UVB filter (lipids)): about 15 % by weight
solubility in lipids (in words) (lipids): poor solubility in lipids
SMILES: CCCCC(CC)COC(=O)c1ccc(Nc2nc(Nc3ccc(C(=O)OCC(CC)CCCC)cc3)nc(Nc3ccc(C(=O)OCC(CC)CCCC)cc3)n2)cc1 (stereo not drawn) [UVINUL7 T 150, tris(2-ethylhexyl) 4,4′,4″-(1,3,5-triazine-2,4,6-triyltriimino)trisbenzoate]
